Assay results from paper PMC11997890, “In Vivo and In Vitro Pharmacokinetic Studies of a Dual Topoisomerase I/II Inhibitor” (ACS Pharmacology & Translational Science, 2025).

Experiments:
CYP2D6 = target: T1, CYP2D6 (Homo sapiens, UniProt P10635); assay: Conversion of P8-D6 by recombinant CYP2D6; type: in vitro ADME
T1 construct: host or cells: human liver microsomes (one value) / recombinant CYP enzyme (other value)
Experimental: P8-D6 N-oxide was the most common metabolite for all incubations with subcellular fractions from the homogenized tissue. According to the detected MS-MS fragments (supplied as Supporting Information Chapter 2), it resulted from N-oxygenation of the nitrogen at the side chain since the unmodified fragment of P8-DO (m/z = 414.1) was detected. Furthermore, the detected fragment at m/z = 440.1 is most likely a carbocation at the remaining ethyl chain after splitting off the dimethylamine N-oxide further strengthening the theory of selectively forming this specific N-oxide. In addition, no relevant chemical shifts in the aromatic range of the ^1H NMR compared to P8-D6 and mono were observed (supplied as Supporting Information Chapter 2). Thus, no chemical modifications can have occurred on the aromatic rings, and all changes must therefore affect the side chain. […] To determine which enzymes were responsible for the conversion, seven recombinant CYP 450 isoenzymes recommended by the FDA’s “Guidance for Industry” and human FMO3 were used.
Among the recombinant enzymes, P8-D6 is mostly metabolized to P8-D6 mono by CYP3A4 (0.34%, significant compared to any other enzyme, p < 0.0001) and 2D6 (0.17%, significant compared to 2C8, 1A2, 2C19, and 2C9, p < 0.005) (Figure E). […]

OvCar8 cells = assay: 2D monolayer apoptosis (caspase activity) assay (ApoLive-Glo); type: cell-based, human; conditions: 48 h
Experimental: The efficacy of metabolites can have a significant impact on the efficacy of the drug. […] The therapeutic effect of P8-D6 mono and P8-D6 N-oxide was investigated in vitro in human ovarian cancer 2D monolayers and 3D spheroids (Figures and ). 48 h of treatment of the ovarian cancer cell lines (OvCar8, A2780, Igrov-1) with P8-D6 mono and P8-D6 N-oxide was compared to P8-D6 and cisplatin (study preparation scheme supplied as Figure S5). Both metabolites decreased viability in ovarian cancer cells in a 2D monolayer (Figure A, supplied as Figure S3 A,C).
The human ovarian cancer cell lines OvCar8, Igrov-1, and A2780, purchased from ATCC, were maintained in RPMI1640 medium, including L-glutamine supplemented with 10% fetal bovine serum and 60 IU/mL penicillin–streptomycin. Cells were grown at 37 °C and 5% CO2 in a humidified incubator and subcultivated at a confluency of 70–80%. […]
For the measurements of viability and apoptosis, cells of approximately 8000/well were seeded in a Corning No. 3903 plate and treated with the corresponding drugs for 48 h. […] Fluorescence and luminescence units were measured by using a microplate multimode reader (Spark, Tecan). Relative caspase activity was calculated as caspase activity divided by viability (normalized to control). […]

OvCar8 spheroids = assay: 3D spheroid viability (RealTime-Glo); type: cell-based, human; conditions: for IC50: Homo sapiens, OVCAR-8, OvCar8 3D spheroids, 48 h
Experimental: Tumor complexity is represented more realistically in 3D spheroid models than in 2D monolayer models.
OvCar8 cells (8000/well) were seeded into an Ultra-Low-Attachment plate (Corning #4520) and grown for 96 h. Then, spheroids were treated with the drugs for 48 h. Cell cytotoxicity was assessed using the CellTox Green Cytotoxicity Assay (Promega #G8731) 48 h after treatment with NYONE ([…], 485Ex/520Em). Filters: BFEx/GreenEm (530/43 nm); BlueEx (475/28 nm)/GreenEm (530/43 nm). Viability and apoptosis were determined by RealTime-Glo (460Em) (Promega #G9711) and caspase-Glo 3/7 (565Em) (Promega #G8090) according to the manufacturer’s instructions using a microplate reader (Spark, Tecan). Relative caspase activity: caspase activity divided by the viability (normalized to control). For live-dead staining, cells were grown and treated as described above. Then, 80% of the medium was removed and replaced with propidium iodide (PI) (15 μM), calcein-AM (0.2 μM), and Hoechst 33342 (1.8 μM) in medium for 3 h and imaged by NYONE ([…]). Filters: BFEx/GreenEm(530/43 nm); Hoechst 33342: UVEx (377/50 nm)/BlueEm (452/45 nm); calcein-AM: BlueEx (475/28 nm)/GreenEm (530/43 nm); propidium iodide: LimeEx(562/40 nm)/RedEm(628/32 nm). All experiments were performed in biological triplicates. PBS was used as the negative control, and cisplatin and P8-D6 as the positive control.

T1 sequence (P10635 whole entry): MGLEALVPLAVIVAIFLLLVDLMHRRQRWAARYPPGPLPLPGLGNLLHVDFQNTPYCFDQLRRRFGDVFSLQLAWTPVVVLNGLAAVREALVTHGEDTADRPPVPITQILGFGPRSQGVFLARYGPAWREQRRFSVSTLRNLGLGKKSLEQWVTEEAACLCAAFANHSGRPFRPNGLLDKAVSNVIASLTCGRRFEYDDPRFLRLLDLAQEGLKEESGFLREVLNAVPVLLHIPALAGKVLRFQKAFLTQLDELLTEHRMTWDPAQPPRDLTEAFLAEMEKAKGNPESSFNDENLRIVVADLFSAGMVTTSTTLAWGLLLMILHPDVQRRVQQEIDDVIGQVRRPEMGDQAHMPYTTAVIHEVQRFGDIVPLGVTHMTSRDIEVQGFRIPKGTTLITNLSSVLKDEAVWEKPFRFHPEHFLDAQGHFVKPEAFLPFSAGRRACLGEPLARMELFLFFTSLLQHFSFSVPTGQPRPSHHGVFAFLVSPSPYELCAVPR

SMILES | formation of metabolite from P8-D6 (CYP2D6) | apoptosis induction (OvCar8 cells) | IC50 (OvCar8 spheroids) | apoptosis rate higher than cisplatin (OvCar8 cells; 10 μM) | efficacy increased compared to cisplatin (OvCar8 spheroids; 3D spheroids) | efficacy reduced compared to P8-D6 mono (OvCar8 spheroids; 3D spheroids)
CNCCOc1nc2c3cnccc3cc(-c3cc(OC)c(OC)c(OC)c3)c2c2ccncc12 [P8-D6 mono] | 0.17% | comparable to that of P8-D6 | 240 nM | – | – | –
COc1cc(-c2cc3ccncc3c3nc(OCC[N+](C)(C)[O-])c4cnccc4c23)cc(OC)c1OC [P8-D6 N-oxide] | – | – | 720 nM | 3.5 fold | 18 fold | 3 fold
COc1cc(-c2cc3ccncc3c3[nH]c(=O)c4cnccc4c23)cc(OC)c1OC [P8-DO] | 0.09% | – | – | – | – | –
